Source: PMC6150237, “Study of Absorption Characteristics of the Total Saponins from Radix Ilicis Pubescentis in an In Situ Single-Pass Intestinal Perfusion (SPIP) Rat Model by Using Ultra Performance Liquid Chromatography (UPLC)” (Molecules : A Journal of Synthetic Chemistry and Natural …, 2017)

How the values were obtained:
[1] = In situ single-pass intestinal perfusion (SPIP), saponins administrated in monomer forms; assay type: in vivo; conditions: male, Sprague-Dawley, rat, other: in situ single-pass intestinal perfusion
Experimental: MDQ-TS perfusion samples at low, middle, and high concentration levels of 1.25, 2.5, and 5.0 mg·mL^−1 were prepared by separately dissolving MDQ-TS in the minimum amount of DMSO and diluted with K-R buffer solution. The amount of DMSO was 0.5% in the final perfusion solutions. C1, C2, C3, C4, DC1, and DC2 perfusion samples with the concentration equivalent to the amount contained in 2.5 mg·mL^−1 of MDQ-TS were individually prepared in the same way. Verapamil, amantadine and EDTA were directly dissolved in the MDQ-TS perfusate with terminal concentrations of 200 μmol·L^−1, 2.5 mmol·L^−1, and 2.5 mmol·L^−1, accordingly, and used for investigating the mechanisms involved for absorption.
In situ single-pass intestinal perfusion (SPIP) studies were performed using an experimental design adapted from the literature with some modifications. Briefly, male Sprague-Dawley rats weighing 180–220 g were acclimatized for at least one week before the experiment, and fasted for 18 h with free access to water before the perfusion experiment. Rats were anesthetized with an intraperitoneal injection of urethane (30 mg·kg^−1 body weight), and kept on a homeothermic blanket to maintain normal body temperature. The abdomen was opened with a midline longitudinal incision, and three segments of rat intestine (duodenum, jejunum, and ileum) of approximately 10 cm each were carefully cannulated on two ends with plastic tubing. Initially, the perfusion solution free of drug (37 °C) was pumped by peristaltic pump (BT100-1F, Longer Pump Co., Baoding, China) through the cannulated segments at a flow rate of 1 mL/min for approximately 30 min in order to clean out any residual debris. Secondly, the perfusion solution containing a known concentration of substance (C1, C2, C3, C4, DC1, DC2, and MDQ-TS) was perfused at 37 °C through the intestinal lumen at a constant flow rate of 0.2 mL/min. The first 20 min of period corresponds to steady state, i.e., when the substance is in equilibrium with the intestinal membrane. After steady state, samples were collected from distal portion of duodenum, jejunum and ileum at 10 min intervals (0–10, 10–20, 20–30, 30–40, 40–50, 50–60 min) in pre-weighted vials. Samples were immediately frozen at −20 °C until analysis by validated UPLC. During the experiment, care was taken to avoid disturbance of the circulatory system and the exposed segment was covered with a piece of sterilized gauze to keep it warm and moist by frequent application of warm (37 °C) saline. The intestinum tenue maintained its viability and intact state without disrupting the blood supply throughout the experimental period. Finally, animals were sacrificed after depth anesthesia by intraperitoneal injection of urethane, according to protocols for euthanasia in experimental animals. After death, the intestinal segment was removed for measurements of length and inside diameter.
The net water flux in the in situ perfusion studies (water absorption and efflux in the intestinal segment) was determined by gravimetric method. The effective absorption rate constant (Ka) and effective apparent permeability (Papp) of compounds in the intestinal segments were calculated according to the following mathematical expression:(1) Ka=(1−CoutQout/CinQin)Q/V (2) Papp=−Qln(CoutQout/CinQin)/2πrl where Cin and Cout are the concentration of test drug in the effluent perfusate through the inlet and outlet tube (μg·mL^−1), respectively. Qin and Qout represent the inlet and outlet volume of effluent perfusate (mL), respectively. Q is the volume flow rate of perfusion (mL·h^−1). V is the volume of the intestinal segment concerned (mL). 2πrl is the area of the mass transfer surface of intestinal segment concerned (cm^2).

[2] = cited from earlier work
[3] = administered in monomer forms, summary bound
[4] = monomer form, duodenum, concentration equivalent to 2.5 mg·mL^−1 MDQ-TS, n = 5

Question: What does the source list for `C[C@@H]1CC[C@]2(C(=O)O)CC[C@]3(C)C(=CC[C@@H]4[C@@]5(C)CC[C@H](O)[C@@](C)(C(=O)O)[C@@H]5CC[C@]43C)[C@@H]2[C@]1(C)O` [C1, ilexgenin A]?
Answer: Papp [1, 3]: > 20 ×10⁻⁶ cm/s; Papp [1, 4]: 55 ×10⁻⁶ cm/s; Papp ([1]; monomer form, ileum, n = 5): 50 ×10⁻⁶ cm/s; Papp ([1]; monomer form, jejunum, n = 5): 58.3 ×10⁻⁶ cm/s; absolute oral bioavailability ([2]; calculated based on literature data): low value; maximum plasma concentration ([2]; oral administration of C1, 100 mg/kg): approximately 350 ng·mL^−1

Question: Which results are given for `CC1CCC2(C(=O)OC3OC(CO)C(O)C(O)C3O)CCC3(C)C(=CCC4C5(C)CCC(O)C(C)(C(=O)O)C5CCC43C)C2C1(C)O` (stereo not shown) [C2, ilexsaponin A1]?
Answer: Papp [1, 3]: > 20 ×10⁻⁶ cm/s; Papp [1, 4]: 40 ×10⁻⁶ cm/s; Papp ([1]; monomer form, ileum, n = 5): 41.7 ×10⁻⁶ cm/s; Papp ([1]; monomer form, jejunum, n = 5): 41.7 ×10⁻⁶ cm/s
